The test system of one series is H358. The series is described as follows: In vitro cell proliferation inhibition assay (CellTiter-Glo), H358. The class given is cell-based. The note with it: H358, KRAS (p.G12C), 72 h; read-out: IC50, antiproliferative activity. Here is the method:
(§1) Due to the diversity of RAS mutations, and in order to evaluate the activity of the compounds in different RAS mutant cell lines, we selected cell lines with KRAS^G12D, KRAS^G12V, KRAS^G12c, NRAS^q61L, KRAS^G13D, KRAS^G12R, and KRAS^WT mutations (see the table below for in vitro activity evaluation and screening of the compounds.
(§2) According to the doubling time of different cell lines, different numbers of cells (1000-5000 cells/well) were seeded into 96-well plates containing 180 μL of the corresponding culture medium, and incubated overnight in a cell incubator at 37 °C with 5% C02. On the following day, the test compounds were pre-diluted in the culture medium in a 3-fold serial dilution series, with the highest concentration being […], resulting in 10 concentration gradients in total. Subsequently, 20 μL of culture medium containing the compounds at different concentrations was added to the cells in the 96-well plates, ensuring a final compound concentration of up to 10 μM, with 10 concentrations in 3-fold dilution. After co-incubation of the cells with the compounds for 72 h, the 96-well plates were removed from the incubator and equilibrated at room temperature for 30 min. Then, 25 μL of CellTiter-Glo® Reagent was added to each well and mixed thoroughly, followed by incubation at room temperature for 10 min. Subsequently, 100 μL of the samples was transferred to white 96-well plates (OptiPlate™-96, PerkinElmer), and […] signal values were read using a multifunctional microplate reader (SpectraMax i3x, Molecular Devices). The signal values were then normalized, and curve fitting was performed using a four-parameter logistic regression equation to calculate the half maximal inhibitory concentration (IC50) of the compounds against the cell lines.
(Cellular ATP, detected with luciferase, serves as a proxy for viable cell number.)

Another series relates to HepG2. Description: In vitro cell proliferation inhibition assay (CellTiter-Glo), HepG2. It is filed as cell-based. As to conditions: HepG2, NRAS (p.Q61L), 72 h; read-out: IC50, antiproliferative activity. The protocol:
as §1, §2

Another series deals with PSN1. The series is described as follows: In vitro cell proliferation inhibition assay (CellTiter-Glo), PSN1. The class given is cell-based. As to conditions: PSN1, KRAS (p.G12R), 72 h; read-out: IC50, antiproliferative activity. Here is the method: as §1, §2
A short description of series [1]: Pharmacokinetic study in mice. The class given is in vivo. As to conditions: mouse, male CD-1 mice; for bioavailability: blood; for bioavailability / AUC / Cmax: po, p.o. 2 mpk; for bioavailability / Vd / clearance: i.v. 1 mpk; for Vd / clearance: iv, 1 mg/kg; for Vd / clearance / AUC / Cmax: whole blood; for AUC / Cmax: 2 mg/kg. Here is the method:
To evaluate the pharmacokinetic behavior of the compounds of the disclosure in male CD-1 mice, the test compounds were dissolved in a solvent (5% DMSO/10% solutol/85% water). Twelve male CD-1 mice were divided into two groups, with six animals in each group. Group 1 received a single intravenous bolus (i.v.) administration of the compound, and Group 2 received a single oral (p.o.) administration of the compound. Whole blood samples were collected at 0.083 h (intravenous group only), 0.25, 0.5, 1, 2, 4, 8, and 24 hours after dosing. The concentration of the test compound in whole blood samples was determined using the LC-MS/MS method.

A further series deals with AsPC-1. The series is described as follows: In vitro cell proliferation inhibition assay (CellTiter-Glo), AsPC-1. It is filed as cell-based. The note with it: AsPC-1, KRAS (p.G12D), 72 h; read-out: IC50, antiproliferative activity. The protocol:
as §1, §2

Another series has as its system MV411. The series is described as follows: In vitro cell proliferation inhibition assay (CellTiter-Glo), MV411. The class given is cell-based. The note with it: MV411, KRAS wild type, 72 h; read-out: IC50, antiproliferative activity. The protocol:
as §2

Another series deals with SW480. The series is described as follows: In vitro cell proliferation inhibition assay (CellTiter-Glo), SW480. The class given is cell-based. As to conditions: SW480, KRAS (p.G12V), 72 h; read-out: IC50, antiproliferative activity. The protocol: as §1, §2
In the next series the test system is HCT116. Description: In vitro cell proliferation inhibition assay (CellTiter-Glo), HCT116. The class given is cell-based. As to conditions: HCT116, KRAS (p.G13D), 72 h; read-out: IC50, antiproliferative activity. The protocol:
as §1, §2

One may read the IC50 as the midpoint of a concentration-inhibition curve. What is called bioavailability is dose-corrected exposure relative to a reference, in per cent. High values mean much systemic uptake, low ones little systemic uptake. A word on the Vd: it is a proportionality between amount in the body and measured concentration, not a real space. Read a low Vd as confinement near the circulation. As usually defined, the clearance is the volume of plasma or blood freed of the substance per unit of time. For orientation: AUC means concentration integrated over time. High values mean high exposure, low ones low exposure. Usually Cmax stands for the highest concentration seen after dosing. On to `CCn1c(-c2cc(-c3nnc(C4CCN(C5COC5)CC4)o3)cnc2[C@H](C)OC)c2c3cc(ccc31)-c1csc(n1)C[C@H](NC(=O)[C@H]1[C@H](C)[C@@H]1C)C(=O)N1CCC[C@H](N1)C(=O)OCC(C)(C)C2` (atropisomer, axis not shown) [Compound 2, (1r,2R,3S)—N-((6^3S,4S,Z)-1^1-ethyl-1^2-(2-((S)-1-methoxyethyl)-5-(5-(1-(oxetan-3-yl)piperidin-4-yl)-1,3,4-oxadiazol-2-yl)pyridin-3-yl)-10,10-dimethyl-5,7-dioxo-6^1,6^2,6^3,6^4,6^5,6^6-hexahydro-1^1H-8-oxa-2(4,2)-thiazola-1(5,3)-indola-6(1,3)-pyridazinacycloundecaphane-4-yl)-2,3-dimethylcyclopropane-1-carboxamide], for which the IC50 turned out to be 0.002 nM in the series on H358; 0.01 nM with HepG2; 0.01 nM in the series with PSN1; 0.06 nM in the series with AsPC-1; 0.16 nM in the series on MV411; 0.09 nM with SW480. Also, the IC50 in the series on HCT116 came to 0.07 nM. For the same compound, the bioavailability in series [1] amounted to 24.5%. This compound gave a volume of distribution (Vd) in series [1] of 1.95 L/kg. The compound further registered a clearance in series [1] of 4.6 mL/min/kg. In series [1], this compound had an area under the curve (AUC) of 1790 ng·h/mL. In addition, the Cmax in series [1] came out at 167 ng/mL.
With `CO[C@@H](C)c1ncc(-c2nnc(C3CCN(C4COC4)CC3)o2)cc1-c1c2c3cc(ccc3n1CC(F)(F)F)-c1csc(n1)C[C@H](NC(=O)C1C[C@@H]1C)C(=O)N1N[C@H](C(=O)OCC(C)(C)C2)C2CC1C2` (stereo partly drawn) [Compound 9], the IC50 stood at 0.041 nM with H358; 0.16 nM in the series on HepG2; 0.01 nM in the series on PSN1; 0.09 nM in the series with AsPC-1; 0.76 nM in the series on MV411; 0.06 nM in the series with SW480. The IC50 in the series on HCT116 came to 0.23 nM. The bioavailability in series [1] stood at 63.3%. In series [1], this compound registered a volume of distribution (Vd) of 2.87 L/kg. This compound also gave a clearance in series [1] of 3.7 mL/min/kg. In addition, the AUC in series [1] was 5740 ng·h/mL. The compound also showed a Cmax in series [1] of 248 ng/mL.

These data come from US20260355191A1, “PAN-RAS INHIBITOR COMPOUND” (ADLAI NORTYE BIOPHARMA CO., LTD., priority 2024, published 2026).
